Values of other authors as cited in US6013636A, “Anthelmintic macrocyclic lactone compositions” (Ashmont Holdings Limited, priority 1995, dated 2000).

Experiments:
[1] = sesame oil, soya bean oil and corn oil

Stability in water	Solubility in oils [1]	Compound
oxidise and break down in water	sparingly soluble	CO[C@H]1C[C@H](O[C@H]2[C@H](C)O[C@@H](O[C@@H]3/C(C)=C/C[C@@H]4C[C@@H](C[C@]5(C=C[C@H](C)[C@@H](C6CCCCC6)O5)O4)OC(=O)[C@@H]4C=C(C)[C@@H](O)[C@H]5OC/C(=C\C=C\[C@@H]3C)[C@]54O)C[C@@H]2OC)O[C@@H](C)[C@@H]1O [doramectin]
oxidise and break down in water	sparingly soluble	CO/N=C1\C[C@]2(C[C@@H]3C[C@@H](C/C=C(\C)C[C@@H](C)/C=C/C=C4\CO[C@@H]5[C@H](O)C(C)=C[C@@H](C(=O)O3)[C@]45O)O2)O[C@H](/C(C)=C/C(C)C)[C@H]1C [moxidectin]

Compound	Stability in water	Solubility in oils [1]
ivermectin	oxidise and break down in water	sparingly soluble
